± gives the standard deviation of the averaged measurements.
Columns and labels:
Test in all cases: relative viability vs DMSO control (72 h) (fraction); higher = more viable cells
HT1080 = system: HT1080
Method in brief: (§1)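 Sarcoma cell lines were seeded in 384-well plates at densities chosen for 80–90% confluence, then 24 h later given 2.5 µl of serially diluted compound drawn from source plates spanning 10 mM to 0.0002 mM. They were held 72 h at 37 °C, 5% CO2, with 0.1% DMSO vehicle and a 5 µM positive control included. Relative viability was read with ATPLite as percent growth and averaged over up to triplicate wells. Rescaling placed full at 1 and none at 0.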

SW872 = system: SW872
Method in brief: as §1

SW1353 = system: SW1353
Method in brief: as §1

KHOS-NP = system: KHOS-NP
Method in brief: as §1

RD-ES = system: RD-ES
Method in brief: as §1

MES-SA = system: MES-SA
Method in brief: as §1

SK-ES-1 = system: SK-ES-1
Method in brief: as §1

SW684 = system: SW684
Method in brief: as §1

SK-LMS-1 = system: SK-LMS-1
Method in brief: as §1

G401 = system: G401
Method in brief: as §1

VA-ES-BJ = system: VA-ES-BJ
Method in brief: as §1

RD = system: RD
Method in brief: as §1

O=C1CCc2c(Oc3ccc4c(c3)[C@@H]3[C@H](O4)[C@H]3c3nc4cc(C(F)(F)F)ccc4[nH]3)ccnc2N1 [Lifirafenib]
Conditions	relative viability
G401, 0.00017 µM	1.02 ± 0.012
G401, 0.00051 µM	1.03 ± 0.037
G401, 0.00152 µM	1.03 ± 0.056
G401, 0.00457 µM	1.02 ± 0.047
G401, 0.01372 µM	1.02 ± 0.015
G401, 0.04115 µM	1.03 ± 0.0084
G401, 0.1235 µM	1.035 ± 0.003
G401, 0.3704 µM	1.01 ± 0.036
G401, 1.111 µM	0.957 ± 0.065
G401, 3.333 µM	0.787 ± 0.014
G401, 10 µM	0.625 ± 0.051
HT1080, 0.00017 µM	1.09 ± 0.018
HT1080, 0.00051 µM	1.05 ± 0.019
HT1080, 0.00152 µM	1.046 ± 0.0038
HT1080, 0.00457 µM	1.08 ± 0.012
HT1080, 0.01372 µM	1.07 ± 0.067
HT1080, 0.04115 µM	1.11 ± 0.045
HT1080, 0.1235 µM	1.09 ± 0.014
HT1080, 0.3704 µM	1.09 ± 0.07
HT1080, 1.111 µM	1.04 ± 0.052
HT1080, 3.333 µM	0.9439 ± 0.0047
HT1080, 10 µM	0.491 ± 0.046
KHOS-NP, 0.00017 µM	1.07 ± 0.018
KHOS-NP, 0.00051 µM	1.07 ± 0.012
KHOS-NP, 0.00152 µM	1.07 ± 0.018
KHOS-NP, 0.00457 µM	1.07 ± 0.013
KHOS-NP, 0.01372 µM	1.064 ± 0.0073
KHOS-NP, 0.04115 µM	1.05 ± 0.034
KHOS-NP, 0.1235 µM	1.06 ± 0.013
KHOS-NP, 0.3704 µM	1.07 ± 0.019
KHOS-NP, 1.111 µM	0.8425 ± 0.0076
KHOS-NP, 3.333 µM	0.433 ± 0.021
KHOS-NP, 10 µM	0.321 ± 0.042
MES-SA, 0.00017 µM	0.948 ± 0.0089
MES-SA, 0.00051 µM	0.952 ± 0.026
MES-SA, 0.00152 µM	0.954 ± 0.026
MES-SA, 0.00457 µM	0.955 ± 0.037
MES-SA, 0.01372 µM	0.961 ± 0.016
MES-SA, 0.04115 µM	0.974 ± 0.031
MES-SA, 0.1235 µM	0.985 ± 0.024
MES-SA, 0.3704 µM	0.992 ± 0.033
MES-SA, 1.111 µM	0.956 ± 0.012
MES-SA, 3.333 µM	0.792 ± 0.025
MES-SA, 10 µM	0.493 ± 0.012
RD, 0.00017 µM	1.08 ± 0.036
RD, 0.00051 µM	1.1 ± 0.061
RD, 0.00152 µM	1.09 ± 0.035
RD, 0.00457 µM	1.13 ± 0.051
RD, 0.01372 µM	1.11 ± 0.069
RD, 0.04115 µM	1.13 ± 0.05
RD, 0.1235 µM	1.11 ± 0.04
RD, 0.3704 µM	1.039 ± 0.01
RD, 1.111 µM	0.947 ± 0.065
RD, 3.333 µM	0.787 ± 0.026
RD, 10 µM	0.5251 ± 0.005
RD-ES, 0.00017 µM	0.9742 ± 0.0083
RD-ES, 0.00051 µM	0.997 ± 0.016
RD-ES, 0.00152 µM	0.98 ± 0.022
RD-ES, 0.00457 µM	0.991 ± 0.039
RD-ES, 0.01372 µM	1 ± 0.015
RD-ES, 0.04115 µM	0.981 ± 0.036
RD-ES, 0.1235 µM	0.992 ± 0.041
RD-ES, 0.3704 µM	1.04 ± 0.014
RD-ES, 1.111 µM	1.02 ± 0.011
RD-ES, 3.333 µM	0.954 ± 0.025
RD-ES, 10 µM	0.822 ± 0.044
SK-ES-1, 0.00017 µM	1.01 ± 0.058
SK-ES-1, 0.00051 µM	1.04 ± 0.072
SK-ES-1, 0.00152 µM	1.068 ± 0.0054
SK-ES-1, 0.00457 µM	1.05 ± 0.012
SK-ES-1, 0.01372 µM	1.09 ± 0.037
SK-ES-1, 0.04115 µM	1.07 ± 0.044
SK-ES-1, 0.1235 µM	1.06 ± 0.084
SK-ES-1, 0.3704 µM	1.08 ± 0.037
SK-ES-1, 1.111 µM	1.04 ± 0.082
SK-ES-1, 3.333 µM	0.867 ± 0.017
SK-ES-1, 10 µM	0.572 ± 0.015
SK-LMS-1, 0.00017 µM	1.04 ± 0.038
SK-LMS-1, 0.00051 µM	1.06 ± 0.014
SK-LMS-1, 0.00152 µM	1.09 ± 0.038
SK-LMS-1, 0.00457 µM	1.08 ± 0.048
SK-LMS-1, 0.01372 µM	1.1 ± 0.044
SK-LMS-1, 0.04115 µM	1.11 ± 0.046
SK-LMS-1, 0.1235 µM	1.14 ± 0.085
SK-LMS-1, 0.3704 µM	1.1 ± 0.036
SK-LMS-1, 1.111 µM	0.876 ± 0.024
SK-LMS-1, 3.333 µM	0.6129 ± 0.0051
SK-LMS-1, 10 µM	0.438 ± 0.018
SW684, 0.00017 µM	1.17 ± 0.035
SW684, 0.00051 µM	1.2 ± 0.021
SW684, 0.00152 µM	1.18 ± 0.066
SW684, 0.00457 µM	1.16 ± 0.019
SW684, 0.01372 µM	1.15 ± 0.033
SW684, 0.04115 µM	1.15 ± 0.051
SW684, 0.1235 µM	1.154 ± 0.011
SW684, 0.3704 µM	1.22 ± 0.046
SW684, 1.111 µM	1.32 ± 0.12
SW684, 3.333 µM	1.3 ± 0.03
SW684, 10 µM	0.936 ± 0.041
SW872, 0.00017 µM	0.974 ± 0.044
SW872, 0.00051 µM	0.998 ± 0.016
SW872, 0.00152 µM	1.01 ± 0.039
SW872, 0.00457 µM	1.03 ± 0.031
SW872, 0.01372 µM	1.03 ± 0.014
SW872, 0.04115 µM	0.98 ± 0.073
SW872, 0.1235 µM	0.941 ± 0.016
SW872, 0.3704 µM	0.735 ± 0.017
SW872, 1.111 µM	0.644 ± 0.022
SW872, 3.333 µM	0.644 ± 0.0071
SW872, 10 µM	0.59 ± 0.0069
SW1353, 0.00017 µM	0.989 ± 0.036
SW1353, 0.00051 µM	0.95 ± 0.045
SW1353, 0.00152 µM	0.989 ± 0.028
SW1353, 0.00457 µM	1.01 ± 0.047
SW1353, 0.01372 µM	1.06 ± 0.038
SW1353, 0.04115 µM	1.06 ± 0.06
SW1353, 0.1235 µM	1.06 ± 0.045
SW1353, 0.3704 µM	1.08 ± 0.018
SW1353, 1.111 µM	1.03 ± 0.024
SW1353, 3.333 µM	0.861 ± 0.033
SW1353, 10 µM	0.545 ± 0.016
VA-ES-BJ, 0.00017 µM	1.037 ± 0.0073
VA-ES-BJ, 0.00051 µM	1.039 ± 0.0061
VA-ES-BJ, 0.00152 µM	1.046 ± 0.0068
VA-ES-BJ, 0.00457 µM	1.03 ± 0.035
VA-ES-BJ, 0.01372 µM	1.03 ± 0.03
VA-ES-BJ, 0.04115 µM	1.04 ± 0.043
VA-ES-BJ, 0.1235 µM	1.09 ± 0.028
VA-ES-BJ, 0.3704 µM	1.108 ± 0.0046
VA-ES-BJ, 1.111 µM	1.11 ± 0.022
VA-ES-BJ, 3.333 µM	1.09 ± 0.041
VA-ES-BJ, 10 µM	0.798 ± 0.08

— the supplement of paper PMC10883282
